IC50 data for five substances are collected here from patent publication US6303749A, “Agouti and agouti-related peptide analogs” (Amgen Inc., priority 1999, dated 2001).

For experiment [1], the target named is T1, human melanocortin-3 (MC-3) receptors (Homo sapiens, UniProt P41968).
T1 construct: expressed in transfected cells; membrane fraction used
Put plainly: Melanocortin receptor binding assay, 125I-AGRP competition, MC-3. The note with it: Table II; HEK 293 cell membranes; 125I-AGRP 1.10 nM; read-out: hMC3 IC50 (nM) 125I-AGRP.

Experiment [2] is classed as binding, human. Particulars: Table II; HEK 293 cell membranes; 125I-AGRP 1.10 nM; read-out: hMC3 IC50 (nM) 125I-AGRP.
Experiment [3] has as its target T2, human melanocortin-4 (MC-4) receptors (Homo sapiens, UniProt P32245).
T2 construct: expressed in transfected cells; membrane fraction used
It is filed as binding. The note with it: HEK 293 cell membranes; about […] 125I-NDP-α-MSH; 180 minutes at 25 C; read-out: hMC4 IC50 (nM) 125I NDP-MSH.

For experiment [4], the target named is T1, human melanocortin-3 (MC-3) receptors. Put plainly: Melanocortin receptor binding assay, 125I-NDP-alpha-MSH competition, MC-3. Particulars: HEK 293 cell membranes; about […] 125I-NDP-α-MSH; 180 minutes at 25 C; read-out: hMC3 IC50 (nM) 125I NDP-MSH.

Square brackets hold non-standard residues; d marks the D form. Ends that are not written are not given here. Abu = CC[C@H](N)C(=O)O

T2 sequence (P32245 whole entry): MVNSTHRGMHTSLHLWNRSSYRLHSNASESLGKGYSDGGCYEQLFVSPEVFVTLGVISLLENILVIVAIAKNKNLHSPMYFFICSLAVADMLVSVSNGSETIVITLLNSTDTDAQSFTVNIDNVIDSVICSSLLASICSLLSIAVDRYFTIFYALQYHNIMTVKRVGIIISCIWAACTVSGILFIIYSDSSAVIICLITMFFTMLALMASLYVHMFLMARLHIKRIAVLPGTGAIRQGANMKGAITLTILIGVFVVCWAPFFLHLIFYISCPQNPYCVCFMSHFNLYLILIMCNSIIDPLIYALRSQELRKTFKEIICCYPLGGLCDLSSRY
T1 sequence (P41968 whole entry): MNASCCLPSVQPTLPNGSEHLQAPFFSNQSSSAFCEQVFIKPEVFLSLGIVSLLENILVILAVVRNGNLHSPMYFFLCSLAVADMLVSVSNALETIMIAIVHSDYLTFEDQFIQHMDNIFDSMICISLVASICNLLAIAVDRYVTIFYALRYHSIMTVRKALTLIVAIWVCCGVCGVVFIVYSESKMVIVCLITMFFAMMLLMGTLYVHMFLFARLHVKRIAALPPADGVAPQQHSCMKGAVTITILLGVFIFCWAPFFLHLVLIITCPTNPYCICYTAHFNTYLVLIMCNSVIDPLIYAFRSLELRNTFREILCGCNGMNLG

Turning to “[Abu][Abu]DPCAT[Abu]YCRFFNAFCY[Abu]RKLGTAMNPCSRT (cysteine pairing not given here) [SEQ ID NO:9]”, the IC50 in experiment [1] is 700 nM; in experiment [2] it was 73 nM; in experiment [3], 600 nM; in experiment [4] it was more than 1000 nM.
The matching figures for “RNSCKPPAPA[Abu][Abu]DP[Abu]ASCQCRFFRSACS[Abu]RVL (cysteine pairing not given here) [SEQ ID NO:14]”: more than 1000 nM, 900 nM, more than 1000 nM and more than 1000 nM.
The matching figures for “C[Abu]DPCAT[Abu]Y[Abu]RFFNAF[Abu]YCRKLGTAMNPCSRT (cysteine pairing not given here) [SEQ ID NO:11]”: more than 1000 nM, 800 nM, more than 1000 nM and more than 1000 nM.
The matching figures for “[Abu][Abu]DPCAS[Abu]QCRFFRSACS[Abu]RVLSLNC (cysteine pairing not given here) [SEQ ID NO:17]”: more than 1000 nM, more than 1000 nM, more than 1000 nM and more than 1000 nM.
“RNS[Abu]KPPAPAC[Abu]DP[Abu]AS[Abu]QCRFFRSACSCRVL (cysteine pairing not given here) [SEQ ID NO:15]”: the half-inhibitory concentration (IC50) was more than 1000 nM in experiment [1], 45 nM in experiment [2], 800 nM in experiment [3] and more than 1000 nM in experiment [4].
